The values that follow are results of earlier work, collected in patent US20250144118A1, “MIFEPRISTONE ORAL FORM FOR ITS USE IN CERVIX RIPENING AND LABOUR INDUCTION” (NORDIC GROUP B.V., priority 2020, published 2025).

Molecules are shown by their SMILES.

For data set [1], the system named is cervix of women in term pregnancies. To be noted: 50, 100, 200, 400 and 600 mg of mifepristone; regardless of the dose.
Data set [2] concerns cervix of women in full-term pregnancy. To be noted: clinical trial.
Data set [3] has as its system cervix of pregnant women beyond 41 weeks' gestation. The note with it: 200 mg mifepristone orally, findings not statistically significant.

As for `CC#C[C@]1(O)CC[C@H]2[C@@H]3CCC4=CC(=O)CCC4=C3[C@@H](c3ccc(N(C)C)cc3)C[C@@]21C` [mifepristone, Mifepristone], the efficiency vs placebo entry in data set [1] is “no more effective than placebo”. For the same compound, the “induction of cervical ripening and labour” value in data set [2] was “efficient on inducing cervical ripening and labour”. Also, the “Bishop score after 24 hours vs. placebo” value in data set [3] is recorded as “improve the Bishop score after 24 hours vs. placebo”. Moreover, in data set [3] (vs. placebo), the use of prostaglandin result was “reduce the use of prostaglandin”.
